The target of one test is Human plasma kallikrein (Homo sapiens (Human), UniProt P03952). The test can be described thus: Kallikrein Assay. It is filed as biochemical. The conditions noted are these: purified Human plasma kallikrein 0.5 nM, Acetyl-K-P-R-AFC, pH 7.4; Ki from IC50 by Cheng Prusoff. An outline of the steps:
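Purified human plasma kallikrein (0.5 nM final) with Acetyl-K-P-R-AFC substrate ([…]) in 50 mM HEPES pH 7.4, 150 mM NaCl, 5 mM CaCl2, 0.1% PEG 8000, after enzyme-inhibitor equilibration. Fluorescence (405 ex/510 em) under linear conditions; IC50 from four-parameter fit, converted to Ki by Cheng-Prusoff.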

The next test has as its target human Factor XIa (Homo sapiens (Human), UniProt P03951). The test can be described thus: Factor XIa Assay. To be noted: purified human Factor XIa 40 pM, Z-Gly-Pro-Arg-AFC 100 μM, pH 7.4; read-out: FXIa Ki. It is filed as biochemical. An outline of the steps: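 Ki derived from the dependence of Vo/Vi on inhibitor concentration under a competitive-inhibition model, after pre-equilibration of enzyme and inhibitor. Reaction: 40 pM human FXIa, 100 μM Z-Gly-Pro-Arg-AFC, HEPES 50 mM pH 7.4 with NaCl, CaCl2 and PEG 8000; run at room temperature or 37° C.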

Human plasma kallikrein, sequence (P03952 391-638): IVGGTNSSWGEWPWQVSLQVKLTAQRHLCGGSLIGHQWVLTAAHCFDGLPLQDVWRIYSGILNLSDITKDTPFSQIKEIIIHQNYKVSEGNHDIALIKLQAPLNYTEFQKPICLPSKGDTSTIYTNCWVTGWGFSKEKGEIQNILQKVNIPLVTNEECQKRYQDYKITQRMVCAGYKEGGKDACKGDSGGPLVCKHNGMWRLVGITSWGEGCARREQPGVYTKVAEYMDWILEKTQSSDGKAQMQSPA
Human plasma kallikrein, sequence (P03952 20-390 partner): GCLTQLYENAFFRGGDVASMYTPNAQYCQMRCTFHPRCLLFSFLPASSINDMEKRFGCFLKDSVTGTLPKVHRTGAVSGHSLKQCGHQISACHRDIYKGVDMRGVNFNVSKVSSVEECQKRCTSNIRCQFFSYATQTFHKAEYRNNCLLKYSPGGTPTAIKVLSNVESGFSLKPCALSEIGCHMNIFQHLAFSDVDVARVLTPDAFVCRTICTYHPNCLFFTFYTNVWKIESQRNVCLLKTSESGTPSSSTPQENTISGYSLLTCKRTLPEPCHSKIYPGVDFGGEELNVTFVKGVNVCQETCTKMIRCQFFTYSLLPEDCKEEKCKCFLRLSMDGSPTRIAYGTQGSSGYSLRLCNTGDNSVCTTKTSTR
human Factor XIa, sequence (P03951 388-625): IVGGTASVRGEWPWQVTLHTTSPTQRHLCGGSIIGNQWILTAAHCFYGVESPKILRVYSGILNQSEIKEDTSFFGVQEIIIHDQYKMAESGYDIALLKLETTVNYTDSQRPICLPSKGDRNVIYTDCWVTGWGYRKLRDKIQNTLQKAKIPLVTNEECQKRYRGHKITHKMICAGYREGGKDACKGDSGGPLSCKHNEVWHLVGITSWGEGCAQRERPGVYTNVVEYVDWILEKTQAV
human Factor XIa, sequence (P03951 19-387 partner): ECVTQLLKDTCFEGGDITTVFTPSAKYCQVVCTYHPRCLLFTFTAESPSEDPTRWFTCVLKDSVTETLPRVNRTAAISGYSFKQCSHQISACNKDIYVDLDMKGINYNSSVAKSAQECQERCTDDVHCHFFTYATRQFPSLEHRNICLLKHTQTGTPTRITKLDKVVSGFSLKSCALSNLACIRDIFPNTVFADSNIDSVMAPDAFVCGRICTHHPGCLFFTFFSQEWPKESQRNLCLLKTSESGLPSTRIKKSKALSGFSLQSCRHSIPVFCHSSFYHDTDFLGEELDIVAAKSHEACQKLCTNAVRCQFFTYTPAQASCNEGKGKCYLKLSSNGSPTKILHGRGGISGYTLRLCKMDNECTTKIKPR

As to `COC(=O)Nc1ccc(C(=O)N[C@@H](Cc2ccc(-c3cc[nH]c3)cc2)C(=O)N2CC[C@@]3(C2)OC(=O)Nc2ccc(Cl)cc23)cc1` [Example 79, methyl (4-(((S)-3-(4-(1H-pyrrol-3-yl)phenyl)-1-((R)-6-chloro-2-oxo-1,2-dihydrospiro[benzo[d][1,3]oxazine-4,3′-pyrrolidin]-1′-yl)-1-oxopropan-2-yl)carbamoyl)phenyl)carbamate], the values for the Ki on Human plasma kallikrein and on human Factor XIa were 14.5 nM and 9.98 nM, respectively.

Regarding `COC(=O)Nc1ccc(C(=O)N[C@@H](Cc2ccc(-c3cc(C(F)(F)F)nn3C)cc2)C(=O)N2CC[C@@]3(C2)OC(=O)Nc2ccc(Cl)cc23)cc1` [Example 81, methyl (4-(((S)-1-((R)-6-chloro-2-oxo-1,2-dihydrospiro[benzo[d][1,3]oxazine-4,3′-pyrrolidin]-1′-yl)-3-(4-(1-methyl-3-(trifluoromethyl)-1H-pyrazol-5-yl)phenyl)-1-oxopropan-2-yl)carbamoyl)phenyl)carbamate], the Ki – broadly, a dissociation constant, usually derived from enzyme kinetics or from competition with a known ligand – on Human plasma kallikrein is 7.98 nM; at human Factor XIa, 29.9 nM.

Turning to `COC(=O)Nc1ccc(C(=O)N[C@@H](Cc2ccc(-c3conc3C)cc2)C(=O)N2CC[C@@]3(C2)OC(=O)Nc2ccc(Cl)cc23)cc1` [Example 82, methyl (4-(((S)-1-((R)-6-chloro-2-oxo-1,2-dihydrospiro[benzo[d][1,3]oxazine-4,3′-pyrrolidin]-1′-yl)-3-(4-(3-methylisoxazol-4-yl)phenyl)-1-oxopropan-2-yl)carbamoyl)phenyl)carbamate], the figures for the Ki at Human plasma kallikrein and on human Factor XIa were 11.7 nM and 7.12 nM, respectively.

As to `COC(=O)Nc1ccc(C(=O)N[C@@H](Cc2ccc(-c3cnn(C)c3)cc2)C(=O)N2CC[C@@]3(C2)OC(=O)Nc2ccc(Cl)cc23)cc1` [Example 83, methyl (4-(((S)-1-((R)-6-chloro-2-oxo-1,2-dihydrospiro[benzo[d][1,3]oxazine-4,3′-pyrrolidin]-1′-yl)-3-(4-(1-methyl-1H-pyrazol-4-yl)phenyl)-1-oxopropan-2-yl)carbamoyl)phenyl)carbamate], the figures for the Ki on Human plasma kallikrein and at human Factor XIa were 31.1 nM and 2.65 nM, respectively.

For `COC(=O)Nc1ccc(C(=O)N[C@@H](Cc2cc(C3CC3)no2)C(=O)N2CC[C@@]3(C2)OC(=O)Nc2ccc(Cl)cc23)cc1` [Example 84, methyl (4-(((S)-1-((R)-6-chloro-2-oxo-1,2-dihydrospiro[benzo[d][1,3]oxazine-4,3′-pyrrolidin]-1′-yl)-3-(3-cyclopropylisoxazol-5-yl)-1-oxopropan-2-yl)carbamoyl)phenyl)carbamate], the Ki was 28.4 nM at Human plasma kallikrein and 28.1 nM at human Factor XIa.

Turning to `COC(=O)Nc1ccc(C(=O)N[C@@H](CC(=O)N2CCCCC2)C(=O)N2CC[C@@]3(C2)OC(=O)Nc2ccc(Cl)cc23)cc1` [Example 87, methyl (4-(((S)-1-((R)-6-chloro-2-oxo-1,2-dihydrospiro[benzo[d][1,3]oxazine-4,3′-pyrrolidin]-1′-yl)-1,4-dioxo-4-(piperidin-1-yl)butan-2-yl)carbamoyl)phenyl)carbamate], the figures for the Ki at Human plasma kallikrein and at human Factor XIa were 11 nM and 3.65 nM, respectively.

`COC(=O)Nc1ccc(C(=O)N[C@@H](CC(=O)N2CC3CCCC32)C(=O)N2CCC[C@@]3(C2)OC(=O)Nc2ccc(Cl)cc23)cc1` (stereo partly drawn) [Example 94, methyl (4-(((2S)-4-(6-azabicyclo[3.2.0]heptan-6-yl)-1-((R)-6-chloro-2-oxo-1,2-dihydrospiro[benzo[d][1,3]oxazine-4,3′-piperidin]-1′-yl)-1,4-dioxobutan-2-yl)carbamoyl)phenyl)carbamate]: the Ki at Human plasma kallikrein turned out to be 1.42 nM; on human Factor XIa it was 5.47 nM.

Regarding `COC(=O)Nc1ccc(C(=O)N[C@@H](CC(=O)N2CC[C@H]2CO)C(=O)N2CCC[C@@]3(C2)OC(=O)Nc2ccc(Cl)cc23)cc1` [Example 95, methyl (4-(((S)-1-((R)-6-chloro-2-oxo-1,2-dihydrospiro[benzo[d][1,3]oxazine-4,3′-piperidin]-1′-yl)-4-((S)-2-(hydroxymethyl)azetidin-1-yl)-1,4-dioxobutan-2-yl)carbamoyl)phenyl)carbamate], the Ki on Human plasma kallikrein was 1.81 nM; on human Factor XIa, 3.59 nM.

With `COC(=O)Nc1ccc(C(=O)N[C@@H](CC(=O)N2CC(OC)C2)C(=O)N2CCC[C@@]3(C2)OC(=O)Nc2ccc(Cl)cc23)cc1` [Example 97, methyl (4-(((S)-1-((R)-6-chloro-2-oxo-1,2-dihydrospiro[benzo[d][1,3]oxazine-4,3′-piperidin]-1′-yl)-4-(3-methoxyazetidin-1-yl)-1,4-dioxobutan-2-yl)carbamoyl)phenyl)carbamate], the figures for the Ki at Human plasma kallikrein and at human Factor XIa were 15.3 nM and 51.1 nM, respectively.

Turning to `COC(=O)Nc1ccc(C(=O)N[C@@H](CC(=O)NCc2ccnn2C)C(=O)N2CCC[C@@]3(C2)OC(=O)Nc2ccc(Cl)cc23)cc1` [Example 98, methyl (4-(((S)-1-((R)-6-chloro-2-oxo-1,2-dihydrospiro[benzo[d][1,3]oxazine-4,3′-piperidin]-1′-yl)-4-(((1-methyl-1H-pyrazol-5-yl)methyl)amino)-1,4-dioxobutan-2-yl)carbamoyl)phenyl)carbamate], the Ki on Human plasma kallikrein came out at 25.4 nM; at human Factor XIa, 38.3 nM.

`COC(=O)Nc1ccc(C(=O)N[C@@H](CC(=O)NCC2CC2)C(=O)N2CCC[C@@]3(C2)OC(=O)Nc2ccc(Cl)cc23)cc1` [Example 99, methyl (4-(((S)-1-((R)-6-chloro-2-oxo-1,2-dihydrospiro[benzo[d][1,3]oxazine-4,3′-piperidin]-1′-yl)-4-((cyclopropylmethyl)amino)-1,4-dioxobutan-2-yl)carbamoyl)phenyl)carbamate]: the Ki on Human plasma kallikrein is 17.6 nM; on human Factor XIa it was 40.4 nM.

With `COC(=O)Nc1ccc(C(=O)N[C@@H](CC(=O)N2CC(O)(C3CC3)C2)C(=O)N2CCC[C@@]3(C2)OC(=O)Nc2ccc(Cl)cc23)cc1` [Example 100, methyl (4-(((S)-1-((R)-6-chloro-2-oxo-1,2-dihydrospiro[benzo[d][1,3]oxazine-4,3′-piperidin]-1′-yl)-4-(3-cyclopropyl-3-hydroxyazetidin-1-yl)-1,4-dioxobutan-2-yl)carbamoyl)phenyl)carbamate], the Ki on Human plasma kallikrein was 19.7 nM; on human Factor XIa it was 39.9 nM.

For `COC(=O)Nc1ccc(C(=O)N[C@@H](CC(=O)N2CC[C@@H](OC)C2)C(=O)N2CCC[C@@]3(C2)OC(=O)Nc2ccc(Cl)cc23)cc1` [Example 101, methyl (4-(((S)-1-((R)-6-chloro-2-oxo-1,2-dihydrospiro[benzo[d][1,3]oxazine-4,3′-piperidin]-1′-yl)-4-((R)-3-methoxypyrrolidin-1-yl)-1,4-dioxobutan-2-yl)carbamoyl)phenyl)carbamate], the figures for the Ki at Human plasma kallikrein and at human Factor XIa were 10.3 nM and 36.4 nM, respectively.

Take `COC(=O)Nc1ccc(C(=O)N[C@@H](CC(=O)N2CC[C@@H]2C)C(=O)N2CCC[C@@]3(C2)OC(=O)Nc2ccc(Cl)cc23)cc1` [Example 102, methyl (4-(((S)-1-((R)-6-chloro-2-oxo-1,2-dihydrospiro[benzo[d][1,3]oxazine-4,3′-piperidin]-1′-yl)-4-((S)-2-methylazetidin-1-yl)-1,4-dioxobutan-2-yl)carbamoyl)phenyl)carbamate]: the figures for the Ki at Human plasma kallikrein and on human Factor XIa were less than 1.36 nM and 0.77 nM, respectively.

The values are drawn from patent US10093683B2, “Factor XIa inhibitors” (Merck Sharp & Dohme Corp., priority 2014, dated 2018).
